The data set relates to adult female CD-1 mice. It is filed as in vivo. The protocol: Isoflurane is a halogenated inhalation anesthetic and is routinely used in laboratory animals for its anesthetic properties. In this experiment, posture and gait in mice after brief isoflurane anesthesia was investigated.
Ventral plane videography was used to image 4 adult female CD-1 mice walking 25 cm/s on a transparent treadmill belt just prior to 5 minutes of isoflurane (2.5% isoflurane final concentration in 100% oxygen) anesthesia. Gait analysis was again performed at 25 cm/s 1, 15, 30 and 60 minutes after the animals regained their righting reflex. Mice were placed in a chamber and delivered the isoflurane via a system which vaporized the isoflurane and mixed it with the oxygen using an anesthesia system (EZ Anesthesia™, Euthanex).
When the mice first emerged from the anesthesia (animals were moved from an anesthesia box to room air, including oxygen and CO2), they were groggy for about 2-40 seconds. Following the brief groggy period, a supranormal function became apparent as their gait (including stride length, stance width, and swing duration) was improved relative to prior to the administration of the isoflurane.

The mark [1] stands for this setting: following cessation of anesthesia.

A value given as a limit tells only on which side of the number the result lay.

In the case of `FC(F)OC(Cl)C(F)(F)F` (stereo not shown) [isoflurane, 2-chloro-2-(difluoromethoxy)-1,1,1-trifluoro-ethane], the “Increase of swing duration compared to baseline” value (1 minute after recovery) is on record as ~50%. Besides, the Stride length (1 minute after recovery from 5 minutes of 2.5% isoflurane in 100% oxygen, treadmill 25 cm/s, baseline 6.3±0.1 cm, P<0.05) is 7.6±0.2 cm. Also, where the note is “1 minute after recovery from isoflurane, versus baseline”, the Stance width variability result is reported as “lower”. The Swing duration (1 minute after recovery, baseline 77±3 ms, P<0.05) was determined as 103 ± 3 ms. Further, the “Propulsion duration of the hind limbs” value (1 minute after recovery, baseline 128±5 ms, P<0.05) turned out to be 167 ± 6 ms. In addition, where the note is “1 minute after recovery, treadmill 25 cm/s, baseline 4.1±0.1 Hz, P<0.05”, the Stepping frequency is on record as 3.3±0.1 Hz. Under setting [1], the “Persistence of some supranormal gait characteristics” value is ~30 min and the “Time for all gait metrics to return to baseline” value is ≤ 60 min. Moreover, the “Duration of groggy period on emergence from anesthesia” value (mouse, in vivo) lay in the range of 2 to 40 s. The “Increase in stride length” value (some mice emerging from isoflurane anesthesia) is recorded as “about 25%”.

These data come from US8222300B2, “Methods of treating parkinson's disease using halogenated volatile compounds” (Mouse Specifics, Inc., priority 2007, dated 2012).
